9 compounds from US7326700B2, “Cyclohexenyl phenyl carboxamides tocolytic oxytocin receptor antagonists” (Wyeth, priority 2001, dated 2008) can be followed below.

One assay addresses T1, human oxytocin receptor (Homo sapiens, UniProt P30559).
T1 construct: host or cells: CHO cells, stably transfected (pcDNA3.1 vector)
T1 sequence (P30559 1-389): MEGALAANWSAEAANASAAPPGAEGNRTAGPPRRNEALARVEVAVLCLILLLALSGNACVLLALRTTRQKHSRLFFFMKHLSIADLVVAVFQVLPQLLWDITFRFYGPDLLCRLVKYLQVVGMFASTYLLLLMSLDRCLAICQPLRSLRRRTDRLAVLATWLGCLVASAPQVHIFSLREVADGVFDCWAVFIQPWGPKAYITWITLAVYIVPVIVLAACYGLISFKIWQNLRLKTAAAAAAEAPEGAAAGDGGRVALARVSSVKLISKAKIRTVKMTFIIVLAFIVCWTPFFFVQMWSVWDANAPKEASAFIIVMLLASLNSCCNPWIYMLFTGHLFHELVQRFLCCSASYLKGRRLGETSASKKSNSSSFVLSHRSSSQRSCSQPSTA
In words: Oxytocin binding in CHO cell membranes expressing human oxytocin receptors ([3H]oxytocin radioligand binding). The conditions noted are these: 100 nM. The text has this:
Chinese Hamster Ovary (CHO) cells stably transfected with the human oxytocin recptor (cf. Tanizawa et al., U.S. Pat. No. 5,466,584 (1995) to Rohto Pharmaceutical Co. Ltd., Osaka, Japan) were obtained from M. Thibonnier, Case Western Reserve University School of Medicine, Cleveland, Ohio.
CHO cells transfected with the human oxytocin receptors obtained from M. Thibonnier (pcDNA3.1 vector) are allowed to grow to confluency (approx. >90%) in T-150 flasks under sterile conditions, in a cell culture medium consisting of F-12 Nutrient Mixture (HAM) with L-glutamine (Gibco Cat. #11765-054) containing 15 mM HEPES (Gibco Cat. #15630-080), 1% antibiotic/antimycotic (add 5 mL 1 00×, Gibco Cat. #15240-062 per 500 mL F-12), 400 μg/mL of Geneticin (add 4 mL of 50 mg/mL per 500 mL F-12) and 10% Fetal Bovine Serum (Qualified, heat inactivated, Gibco Cat. #16140-063). The medium is removed by aspiration and the cells are washed with 10 mL of Hank's Balanced Salt solution (Gibco Cat. #14175-095). The salt solution is removed by aspiration and the cells trypsinized with 5 mL of trypsin-EDTA (0.05% trypsin, 0.53 mM EDTA-4Na, Gibco Cat. #25300-070) for 1 min The trypsin is removed by aspiration and the cells dislodged by tapping. Cell Culture medium (e.g. 30 mL for 1:30 split) is immediately added and mixed well to inactivate trypsin. 1 mL of detached cells is added to new culture flasks containing fresh Cell Culture medium (e.g. into 25 mL per T-150 flask), and mixed gently. The cells are incubated at 37° C. in 5% CO2. The medium is changed at 3 to 4 days interval (or as appropriate). The cells grow to confluency (approx. >75%-95%) within 7-8 days. All steps are done under sterile conditions.
The cells are washed twice gently with Hank's Balanced Salt solution (eg, use 10 mL per T-150 flask). The excess solution is removed and the cells bathed for 15-30 min. in an enzyme-free Cell Dissociation Buffer (eg, use 8 mL Hank's Based, Gibco Cat. #13150-016 per T-150 flask) until cells are loosened. The contents are transferred to centrifuge tubes (50 mL size) kept in ice bath. All subsequent steps are done at 4° C. The tubes are centrifuged at 300×g for 15 min (1380 rpm on SORVAL, Model RT6000D, using rotor for 50 mL tubes). The supernatant is discarded and the cells suspended in homogenizing buffer (10 mM Tris-HCl containing 0.25 M sucrose and 1 mM EDTA, pH 7.4) ensuring that the volume of the buffer is about ten times the volume of the cell pellet. The cells are pooled into a centrifuge tube (50 mL) and homogenized with a Polytron at setting 6 for 10 sec. The homogenate is transferred into a Potter-Elvjehm homogenizer and homogenized with 3 strokes. The homogenate is centrifuged at 1500×g for 10 min at 4° C. (3100 rpm using SORVAL, model RT6000D, using rotor for 50 mL tubes). The pellet is discarded. The supernatant is centrifuged at 100,000×g for 60 min. at 4° C. (Beckman L8-80M ultracentrifuge; spin at 37,500 rpm with rotor type 70 Ti for 50 mL tubes; 38,000 rpm with type 80 Ti for 15 mL tubes; or 35,800 rpm with rotor type 45Ti). The supernantant is discarded and the pellet suspended in 3 to 4 mL of Tris buffer (50 mM TRIS-HCl, pH 7.4). The protein content is estimated by the Bradford or Lowry method. The volume of the membrane suspension is adjusted with the membrane buffer (50 mM Tris-HCl containing 0.1% BSA and 0.1 mM PMSF) to give 3.0 mg/mL (or as appropriate) of protein. The membranes are aliquoted and stored at −70° C.
In wells of a 96-well format microtiter plate, is added 90, 110 or 130 μL (to make up a final volume of 200 μL) of assay buffer containing 50 mM of Tris-HCl (pH 7.4), […], 1 mg % aprotinin, 1 mg % leupeptin, 2 mg % 1,10-phenanthroline, 10 mg % trypsin inhibitor, and 0.1 mM PMSF. The inhibitors are added on the day of the experiment. The components are mixed at room temperature, and then kept in ice bath following adjustment of the pH to 7.4. […]
As for `Cc1cc(C(=O)N2Cc3ccc(C(=O)N4CCC(N5CCCCC5)CC4)n3Cc3ccccc32)ccc1C1=CCCCC1` [Example 17, {10-[4-(1-Cyclohex-1-en-1-yl)-3-methylbenzoyl]-10,11-dihydro-5H-pyrrolo[2,1-c][1,4]benzodiazepin-3-yl}[4-(1-piperidinyl)-1-piperidinyl]methanone], the “OT % inhibition @ 100 nM” value amounted to 86%.
Same read-out and setting: as for `Cc1cc(C(=O)N2Cc3ccc(C(=O)NCCN4CCCCC4)n3Cc3ccccc32)ccc1C1=CCCCC1` [Example 20, 10-[4-(1-Cyclohex-1-en-1-yl)-3-methylbenzoyl]-N-[2-(1-piperidinyl)ethyl]-10,11-dihydro-5H-pyrrolo[2,1-c][1,4]benzodiazepine-3-carboxamide], the figure is 52%.
The same measure, in the same setting: as for `Cc1cc(C(=O)N2Cc3ccc(C(=O)N4CCCN(C)CC4)n3Cc3ccccc32)ccc1C1=CCCCC1` [Example 13, {10-[4-(1-Cyclohex-1-en-1-yl)-3-methylbenzoyl]-10,11-dihydro-5H-pyrrolo[2,1-c][1,4]benzodiazepin-3-yl}(4-methyl-1,4-diazepan-1-yl)methanone], the figure is 90%.
The same measure, in the same setting: the same measure for `Cc1cc(C(=O)N2Cc3ccc(C(=O)NCCCN(C)C)n3Cc3ccccc32)ccc1C1=CCCCC1` [Example 14, 10-[4-(1-Cyclohex-1-en-1-yl)-3-methylbenzoyl]-N-[3-(dimethylamino)propyl]-10,11-dihydro-5H-pyrrolo[2,1-c][1,4]benzodiazepine-3-carboxamide]: 57%; for `Cc1cc(C(=O)N2Cc3ccc(C(=O)N(C)CCN(C)C)n3Cc3ccccc32)ccc1C1=CCCCC1` [Example 15, 10-[4-(1-Cyclohex-1-en-1-yl)-3-methylbenzoyl]-N-[2-(dimethylamino)ethyl]-N-methyl-10,11-dihydro-5H-pyrrolo[2,1-c][1,4]benzodiazepine-3-carboxamide]: 99%.

Still in this assay, the particulars now being: 100 nM, read-out: OT % inhibition @ 100 nM.
Turning to `CC1=C(c2ccc(C(=O)N3Cc4ccc(C(=O)N5CCN(C)CC5)n4Cc4ccccc43)cc2C)CCC[C@H]1O` [Example 11, [4-((3R)-3-Hydroxy-2-methyl-cyclohex-1-en-1-yl)-3-methyl-phenyl]-[3-(4-methyl-piperazine-1-carbonyl)-10,11-dihydro-5H-pyrrolo [2,1-c][1,4]benzodiazepin-10-yl]-methanone], the inhibition at 0.1 µM was found to be 86%.
The same measure, in the same setting: the same measure for `Cc1cc(C(=O)N2Cc3ccc(C(=O)N4CCN(CCCN(C)C)CC4)n3Cc3ccccc32)ccc1C1=CCCc2ccccc21` [Example 7, {10-[4-(3,4-Dihydro-naphthalen-1-yl)-3-methyl-benzoyl]-10,11-dihydro-5H-pyrrolo[2,1-c][1,4]benzodiazepin-3-yl}-[4-(3-dimethylamino-propyl)-piperazin-1-yl]-methanone]: 91%.

The same assay, now with this note: value in parentheses, read-out: OT (IC50).
With `Cc1cc(C(=O)N2Cc3ccc(C(=O)N4CCN(C)CC4)n3Cc3ccccc32)ccc1C1=CCCc2ccccc21` [Example 6, {10-[4-(3,4-Dihydro-naphthalen-1-yl)-3-methyl-benzoyl]-10,11-dihydro-5H-benzo[e]pyrrolo[1,2-a][1,4]diazepin-3-yl}-(4-methyl-piperazin-1-yl)-methanone], the IC50 was found to be 25.3 nM.
Same read-out and setting: the same measure for “{10-[4-(1-Cyclohexen-1-yl)-3-methylbenzoyl]-10,11-dihydro-5H-pyrrolo[2,1-c][1,4]benzodiazepin-3-yl}(4-methyl-piperazin-1-yl)methanone [Example 12]”: 32.6 nM.
